Assay results reported in patent US7838491B2, “Self-assembly and mineralization of peptide-amphiphile nanofibers” (Northwestern University, priority 2001, dated 2010).
Square brackets hold non-standard residues; d marks the D form. Peptide text beside a SMILES is read from it. * marks the point of attachment. Palmitoyl = CCCCCCCCCCCCCCCC(=O)*; pS = N[C@@H](COP(=O)(O)O)C(=O)O

Tests used:
Type in all cases: physicochemical
[1] = solubility of the PA in water
Method: (§1) After synthesis (see, example 10), the PA of FIG. 1 (characterized by ^1H NMR and MALDI-TOF MS: [M-H]^−1=1333) was treated with dithiothreitol (DTT) at a pH of 8 to reduce all cysteine residues to free thiols. […] Solutions more concentrated than 2.5 mg/ml form birefringent gels in water that are self-supporting upon inversion of the container. […] Negatives were digitized in the Umax PowerLook scanner with resolution 1200 dpi. The average thickness of the PA fibers was determined by two different procedures. First the Fourier transform of the images and following measurements of the distances between the peaks were performed in the NIH Image […] program. The second approach applied was averaging technique based on the cross-correlation method, widely used in single particle reconstruction using the EMAN […] program. For each data set 1200-1300 individual boxes were selected.

[2] = pH triggered self-assembly and gelation
Method: as §1
Upon lowering the pH below 4 with HCl the material self-assembles; when the pH is brought back to neutrality with KOH it disassembles. This pH triggered self-assembly and gelation allows the material to respond to its environment and thus may have applications in controlled release of molecules (W. A. Petka, J. L. Hardin, K. P. McGrath, D. Wirtz, D. A. Tirrell, Science 281, 389-392 (1998)).

[3] = TEM / cryo-TEM of self-assembled fibers
Method: as §1

[4] = stability of fibers in alkaline solution (pH 8)
Description: Following self-assembly of PA molecules into fibers, the cysteine thiol groups were oxidized by treatment with 0.01M iodine. […] Importantly, the covalent capture process of this invention can be easily reversed by treating the fibers with a mild reducing agent such as DTT. […] Together with the controlled self-assembly, reversible cross-linking provides a highly dynamic system which can interconvert between discrete molecules, self-assembled supramolecular fibers, covalently captured polymeric fibers and back again to single small molecules depending solely on the environment in which the material is placed.

Structure (SMILES): CCCCCCCCCCCCCCCC(=O)N[C@@H](CS)C(=O)N[C@@H](CS)C(=O)N[C@@H](CS)C(=O)N[C@@H](CS)C(=O)NCC(=O)NCC(=O)NCC(=O)N[C@@H](COP(=O)(O)O)C(=O)N[C@@H](CCCNC(=N)N)C(=O)NCC(=O)N[C@@H](CC(=O)O)C(=O)O [PA 1, CCCCGGGS(P)RGD] (Palmitoyl-CCCCGGG[pS]RGD-OH)
- solubility upon acidification ([1]; solution below pH 4): rapidly becomes insoluble
- solubility ([1]; water, pH 8, after DTT reduction of cysteines): > 50 mg/mL
- concentration dependence of fiber formation ([2]; 0.01 mg/ml to 50 mg/ml): concentration independent
- behaviour when pH is brought back to neutrality ([2]; KOH): disassembles
- concentration at which solutions form self-supporting birefringent gels ([2]; in water): > 2500 µg/mL
- pH at which the material self-assembles ([2]; pH lowered with HCl): below 4
- fiber diameter ([3]; TEM, positively and negatively stained dried fibers): 6.0±1 nm
- fiber length ([3]; cryo-TEM of gels): up to several microns
- fiber diameter ([3]; cryo-TEM, native hydrated state): 7.6±1 nm
- stability to alkaline solutions [4]: disassemble within minutes
